Test results: patent US8048866B2, “Preventive and/or therapeutic agent for calcipenia” (Nippon Beet Sugar MFG., Co., Ltd., priority 2004, dated 2011)

Key:
Holstein cows = experiment: Effect of supply of DFA III and DFA IV on calcium metabolism, lactation and urine excretion amount of cows; assay type: in vivo, cow; details: supplied feeds and 100 g of DFA; for Excretion amount of calcium in urine / Milk fat rate / Milk protein rate / Milk yield: main period of 5 days
Excerpt: The effect of supply of DFA III and DFA IV on calcium metabolism, lactation and a urine excretion amount of cows was examined.
Nine Holstein cows (2 to 4 calvings, 90 to 120 days after calving, average body weight 642 kg, average milk yield 36 kg) were divided into three groups, and subjected to a test by 3×3 Latin squares with one period of 15 days (preliminary period of 10 days and main period of 5 days).
Regarding supplied feeds for a day, a grass silage, a cone silage and a beat pulp were used in fixed amounts of 3, 4 and 2 kg in terms of a dry weight respectively, and an amount of a concentrate (crude protein content 18% TDN content 74%) was ⅓ the milk yield. Further, a mineral agent and a vitamin agent were not supplied, and an insufficient feed for each cow was supplemented by supplying hay. These supplied feeds have the same contents in all cows, and they were caused to freely drink water.
The foregoing supply only was applied to a control group Supplied feeds and 100 g of DFA III were applied to a DFA III group, and supplied feeds and 100 g of DFA IV were applied to a DFA IV group.
The cows were accommodated in a metabolism test laboratory, and milking was conducted twice at 5 o'clock and 17 o'clock. The milk yield was measured and milk composition were analyzed for five days as the main period. The total amount of feces and urine was recovered for five days as the main period, and the fixed amounts thereof were mixed and subjected to analysis.
As is apparent from the results, no great difference was found among the groups in the dry matter intake and the calcium intake. The milk yield was increased in the DFA III and DFA IV groups by approximately 1 kg in comparison to the control group. No difference was found either among the groups in the milk fat rate and the milk protein rate. […] In the table, TDN indicates a total amount of a digestible nutrient.

mice = experiment: Acute toxicity test for 10 days using mice; assay type: in vivo; details: oral administration, 1,000 mg/kg
Excerpt: The dose of DFA III is not particularly limited to the foregoing range. When it is ingested over a long period of time for preservation of the health or for maintenance of the health, the dose may be lower than the foregoing range.

[1] = test system: cows with 2 or more calvings; experiment: Influence of DFA III supply at a dry period on calcium concentration in blood of cows after calving; assay type: in vivo, cow
Experimental: The influence of the DFA III supply at a dry period on the calcium concentration in blood of cows after calving was tested in vivo using actual cows.
It has been so far considered that DFA III is administered to cows after caving which is effective for improving the calcium concentration in blood. On the other hand, the calcium concentration in blood is already decreased immediately after calving. As the decree of decrease is greater, vitality and appetite are weak and tend to be slowly recovered. Accordingly, DFA III was supplied at a dry period, and the influence of DFA III on the calcium concentration in blood immediately after calving was examined.
DFA III supply; DFA III (50 g/day) was supplied at a dry period from 3 weeks before an expected date of calving through calving.
Without DFA III supply; DFA III was not supplied before calving.
90 g of DFA III was, each time, supplied to both of the DFA III supply group and the group without DFA supply 0 hour and 6 hours after calving. At a dry period, 4 kg/day of a feed obtained by adding 12,000 IU of vitamin D to 4 kg of a feed was supplied to both the areas.
Cows with 2 or more calvings were used.
As DFA III supply cows, 10 cows which experienced calving after Apr. 30, 2004 were subjected to a test. As cows without DFA III supply, 38 cows which experienced calving from Jul. 14, 2002 through Apr. 18, 2004 and to which DFA III was not supplied at a dry period were used. Since the test started on Jul. 14, 2002, the test cows include 15 cows which experienced calving twice (8 DFA III supply cows and 7 cows without DFA III supply) during this period.
In dry cows, milking was stopped 2 months before an expected date of calving. Then, a concentrate (crude protein content 18%, TDN 72%, Ca 0.9% P 0.5%) was supplied in an amount of 2 kg/day until 3 weeks before an expected date of calving. A concentrate (crude protein content 20%, TDN 75%, Ca 0.2%, P 0.5%) was supplied in an amount of 4 kg/day from 3 weeks before an expected date of calving through calving. As another feed, the cows were caused to freely take hay (crude protein content from 6 to 8%, TDN from 45 to 55%, Ca from 0.2 to 0.3%, P 0.2%) during the entire dry period. A mixture obtained by adding 50 g of DFA III to 4 kg of the concentrate given 3 weeks before an expected date of calving was supplied to the DFA III supply cows. As the feeds supplied after calving, the cows were caused to freely take 20 kg/day of TMR containing a grass silage a corn silage and a concentrate (crude feed rate 47.8%), 4 kg of a concentrate (crude protein content 18%, TDN 72%, Ca 0.9%, P 0.5%) and hay.
In all cows, the blood was sampled from the tail root immediately after calving. Further, the blood sampling was performed from the same tail root after 6 hours, 24 hours and 72 hours from the blood sampling immediately after confinement (0 hour). In 0 hour and 6 hours for blood sampling, 90 g of DFA III, 100 g of calcium carbonate and 10,000 IU of vitamin D dissolved in warm water were orally administered each time.
The blood was centrifuged at 3,000 rpm for 10 minutes, and the serum portion was stored at −30° C. until analysis. The calcium concentration was measured by the OCPC method.

Holstein calving cows [2] = experiment: Degree of udder edema by palpation after oral administration of DFA III and DFA IV; assay type: in vivo, cow; details: time 0, before administration; heavy 4, medium 3, light 2, normal 1
Experimental: (§1) As test cows, 15 Holstein calving cows with two or more calvings were used, and divided into three groups each consisting of 5 cows. Immediately after calving, the blood was sampled from the tail root. 300 ml of warm water was orally administered to the control group. 100 g of DFA III and 100 g of DFA IV each dissolved in 250 ml of warm water were orally administered to the DFA III group and the DFA IV group respectively. The blood was sampled from the tail root after 6 hours and 60 hours from the blood sampling immediately after calving. The degree of the udder edema was also confirmed by palpation.
(§2) The blood was centrifuged at 3,000 rpm for 10 minutes, and the serum portion was stored at −30° C. until analysis. Calcium was analyzed by the OCPC method. The degree of udder was examined by palpation. A heavy degree was defined as 4, a medium degree as 3, a light degree as 2 and a normal degree as 1 respectively.

Holstein calving cows [3] = experiment: Influence of DFA III and DFA IV on calcium concentration in blood in calving of cows (OCPC method); assay type: in vivo, cow; details: for Increase of calcium concentration in blood from immediately after calving: in 6 hours, 100 g orally
Experimental: The influence of DFA III and DFA IV on the calcium concentration in blood in calving of cows was examined.
as §1
Regarding the feeds supplied after calving, the cows were caused to freely take 20 kg/day of TMR containing a grass silage, a corn silage and a concentrate (hereinafter referred to as a mixed feed: forage rate 47.8%), 4 kg of a concentrate and hay. Conditions of calculating the requirement are as follow: day after calving—3, 2 calvings, body weight—612 kg, milk yield—20 kg, milk fat rate—4.0%, and milk protein rate—3.2%. NEl indicates a net energy of lactation, and efNDF indicates an effective neutral detergent insoluble fiber.
as §2

Holstein calving cows [4] = experiment: Effect of DFA III and calcium and vitamin D on calcium concentration in blood at the time of calving of cows; assay type: in vivo, cow
Experimental: The effect of DFA III and calcium and vitamin D on the calcium concentration in blood at the time of calving of cows was examined.
As test cows, 15 Holstein calving cows with 2 or more calvings were used, and divided into three groups each consisting of 5 cows. Immediately after calving, the blood was sampled from the tall root. 100 g of DFA III dissolved in 250 ml of warm water was orally administered to the DFA III group. DFA III and calcium carbonate in amounts of 100 g each which were dissolved in 200 ml of warm water were orally administered to the DFA III+Ca group. DFA III and calcium carbonate in amounts of 100 a each and 10,000 IU of vitamin D which were dissolved in 200 ml of warm water were orally administered to the DFA III+Ca+VD group. The blood was sampled from the tail root after 6, 24 and 70 hours from the blood sampling immediately after calving.
The supply of the feeds and the analyses of the calcium concentration in blood were conducted in the same manner as in Example 3.

rumen microorganisms = experiment: Degradability of DFA III and DFA IV in the rumen (incubation with rumen liquid inoculum); assay type: in vitro ADME, Holstein steer and cow; details: 400 mg/dl in culture solution, 39° C., 0 to 24 hours
Excerpt: In ruminants, for DFA III and DFA IV to accelerate calcium absorption, they have to reach intestines by avoiding degradation thereof in the rumen with microorganisms. Accordingly, degradability of DFA III and DFA IV in the rumen was examined.
A rumen liquid was collected from each of a rumen cannula-fitted Holstein steer to which 4 kg of a concentrate was supplied in consideration of controlling nutrition of a dry cow and which was caused to freely take hay and a cow in which a milk yield was 30 kg and a rate of a concentrate in a supplied feed was 55%. The liquid was filtered through a four-fold gauze to form an inoculum.
As a buffer, a 0.25 M phosphate buffer (KH2PO4 6.8045 g+Na2HPO4.12H2O 26.8605 g/500 ml, pH 7.0) was used, and 1 g of DFA III or DFA IV per 100 ml of this buffer was added.
30 ml of the inoculum and 20 ml of the buffer were added to a 200-ml conical flask. […] In 0, 1, 2, 4, 8, 12 and 24 hours of the culturing, the culture solution was collected from the flask, and analyzed.
The culture solution in the flask was stirred. After 20 ml of the culture solution was collected, 0.1 ml of sulfosalicylic acid (20% solution was added for deproteinization. After centrifugation by 8,000 rotations for 10 minutes, the solution was filtered with a filter paper of 0.45 μm, and DFA III and DFA IV were analyzed by liquid chromatography. […]

[5] = 6 hours after first blood sampling, 100 g orally immediately after calving
[6] = time 0: blood sampling immediately after calving, before oral administration of 100 g

Row | SMILES | Increase of milk yield in comparison to the control group (Holstein cows) | Excretion amount of calcium in urine (Holstein cows) | Milk fat rate (Holstein cows) | Milk protein rate (Holstein cows) | Milk yield (Holstein cows) | Degree of udder edema (Holstein calving cows [2]) | Calcium concentration in blood (Holstein calving cows [3]; [5]) | Increase of calcium concentration in blood from immediately after calving (Holstein calving cows [3]) | Calcium concentration in blood (Holstein calving cows [3]; [6]) | further results
1 | OC[C@H]1O[C@@]2(CO[C@]3(CO)O[C@H](CO)[C@@H](O)[C@@H]3O2)[C@@H](O)[C@@H]1O [DFA III, di-D-fructfuranose-1,2;2,3′ dianhydride] | approximately 1 kg | 4.2 g/day | 3.86% | 3.15% | 35.6 kg/day | 3.3 | 8.3 mg/dL | approximately 1 mg/dl | 7.3 mg/dL | Death in acute toxicity test (mice): no death example was observed; Calcium concentration in blood immediately after calving according to the parity ([1]; 10 DFA III supply cows, DFA III at dry period): not decreased by increasing the parity; Change in calcium concentration in blood after calving (0 to 72 hours) ([1]; Yes-Present calving, 8 cows, DFA III at dry period): shifted at a higher level than in the previous calving; Time for calcium concentration in blood to reach the normal value (9 to 11 mg/dl) ([1]; after calving, DFA III supplied at a dry period, 90 g DFA III, calcium carbonate and vitamin D at 0 and 6 hours): approximately 6 hours; Increase of calcium concentration in blood immediately after calving in comparison to the previous calving ([1]; present calving with DFA III 50 g/day at dry period vs previous calving without): 1.0 mg/dL; Calcium concentration in blood immediately after calving (average) ([1]; present calving, DFA III 50 g/day at a dry period from 3 weeks before expected date of calving): 8.1 mg/dL; Calcium concentration in blood immediately after calving, individual cows ([1]; present calving, DFA III supply at dry period): ≥ 7 mg/dL; Calcium concentration in blood (Holstein calving cows [3]; 60 hours after first blood sampling, 100 g orally immediately after calving): 8.0 mg/dL; Calcium concentration in blood (Holstein calving cows [4]; 6 hours after first blood sampling, oral administration immediately after calving): 7.9 mg/dL; Calcium concentration in blood (Holstein calving cows [4]; 70 hours after first blood sampling, oral administration immediately after calving): 8.5 mg/dL; Increase of calcium concentration in blood in comparison to that immediately after calving (Holstein calving cows [4]; in 6 hours): 1.2 mg/dL; Calcium concentration in blood (Holstein calving cows [4]; time 0: immediately after calving, before oral administration): 6.7 mg/dL
2 | OCC12OCC3OC(CO)(OCC(O1)C(O)C2O)C(O)C3O [DFA IV, di-D-fructfuranose-2,6:6.2′ dianhydride] | approximately 1 kg | 4.0 g/day | 3.92% | 3.11% | 35.2 kg/day | 3.1 | 8.0 mg/dL | approximately 1 mg/dl | 7.1 mg/dL | Degradation in rumen culture solution (rumen microorganisms; any of the inoculums): not degraded; Amount recovered in each incubation time (rumen microorganisms; liquid chromatography): approximately the total amounts thereof were recovered
